Measurements from paper PMC11191402, “High-Affinity NIR-Fluorescent Inhibitors for Tumor Imaging via Carbonic Anhydrase IX” (Bioconjugate Chemistry, 2024).

Biological target: T1, CAIX expressed in live HeLa cells (Homo sapiens, UniProt Q16790)
T1 construct: an open reading frame for the full-length CAIX protein (1–459 amino acids) without a tag; expressed in transfected cells; host or cells: HeLa cells transfected with pCMV-CAIX (TurboFect), normoxia
Assay: NIR-fluorescent compound dosing on live HeLa cells (direct binding)
Source text: To measure NIR-fluorescent compound binding to CAIX expressed in cancer cells, the GZ22-4 compound was applied in different concentrations to live HeLa cells grown under hypoxia and normoxia, as described in the Materials and Methods section, and was previously performed for the fluorescein-conjugated CAIX inhibitor GZ19-32.[16] […] The difference was hidden in the low signal-to-noise ratio.
To increase the amount of CAIX expression, the HeLa cells were transfected with the CAIX-encoding plasmid pCMV-CAIX. There was a dramatic increase in CAIX expression observed both in the dosing curve and fluorescence microscopy results. […] In the case of transfection, we can see both the specific CAIX-dependent signal and relatively weak nonspecific binding of the dye to unknown targets at concentrations above approximately 1 μM (shown as a dashed curve, increasing at the same concentrations as the nontransfected cell dosing curve).
Fluorescence values corresponding to the transfection effect were obtained by subtraction of nontransfected values from transfected fluorescence values, showing the resultant data points as open squares. […] However, the determination of the Kd via dosing curves at such high protein concentrations is not accurate and can only serve as an estimate of affinity.
Both assays were performed as previously described.[16] In brief, to measure fluorescent compound binding to CAIX expressed in live cells, HeLa cells were seeded in 12-well plates and either incubated in hypoxia for 3 days or transfected with the CAIX-coding plasmid pCMV-CAIX next day after seeding. The TurboFect transfection reagent (Thermo Fisher) was used for transfection. […] 150 μL of the suspension from each well was transferred to Thermo Scientific Nunc MicroWell 96-Well Optical-Bottom Plates for fluorescence and absorbance measurements. 759 nm excitation and 800 nm emission wavelengths were used to measure fluorescence on a Synergy HTX, BioTek plate reader. 650 nm wavelength was used for absorbance measurements.

CC1(C)C(/C=C/C2=C(Oc3ccc(CCC(=O)NCCOCCOCCOCCOCCOCCOCCOCCOCCOCCOCCOCCNC(=O)CCS(=O)(=O)c4c(F)c(F)c(S(N)(=O)=O)c(F)c4NC4CCCCCCC4)cc3)C(=C/C=C3\N(CCCCS(=O)(=O)[O-])c4ccccc4C3(C)C)/CCC2)=[N+](CCCCS(=O)(=O)[O-])c2ccccc21.[Na+] [GZ22-4, Sodium 4-((Z)-2-((E)-2-(2-(4-(43-((2-(Cyclooctylamino)-3,5,6-trifluoro-4-sulfamoylphenyl)sulfonyl)-3,41-dioxo-7,10,13,16,19,22,25,28,31,34,37-undecaoxa-4,40-diazatritetracontyl)phenoxy)-3-((E)-2-(3,3-dimethyl-1-(4-sulfonatobutyl)-3H-indol-1-ium-2-yl)vinyl)cyclohex-2-en-1-ylidene)ethylidene)-3,3-dimethylindolin-1-yl)butane-1-sulfonate]
Kd (HeLa transfected with pCMV-CAIX, normoxia, nontransfected values subtracted, 120 nM CAIX, only an estimate of affinity, read-out: Kd from dosing curve on CAIX-transfected HeLa cells): 1 nM
fluorescence signal in hypoxia vs normoxia (nontransfected live HeLa cells, plate reader): no difference in the fluorescence signal in hypoxia vs normoxia
concentration above which nonspecific binding of the dye to unknown targets is seen (transfected and nontransfected HeLa cell cultures): > 1 µM
